Experiments:
Type in all cases: cell-based
[1] = test system: breast cell line HME infected with EZH2 adenovirus; assay: basement membrane matrix invasion assay, EZH2 overexpressing HME cells
Method: (§1) A, Dose response of isoliquiritigenin on inhibiting EZH2 mediated repression. B, A reconstituted basement membrane invasion chamber assay was used to assess the invasion of breast epithelial cell line infected with EZH2 and control adenoviruses as well as SET domain mutant EZH2 adenovirus. EZH2 treated cells were also treated with SAHA, the HDAC inhibitor and isoliquiritigenin, the small molecule inhibitor of EZH2 and the control small molecule phloretin.
For invasion assays, the breast cell lines HME was infected with EZH2 adenovirus. Forty-eight hours post-infection, cells were seeded onto the basement membrane matrix (EC matrix, Chemicon, Temecula, Calif.) present in the insert of a 24-well culture plate. Fetal bovine serum was added to the lower chamber as a chemoattractant with or without 2 doses of small molecule inhibitors. After 48 hours, the non-invading cells and EC matrix were gently removed with a cotton swab. Invasive cells located on the lower side of the chamber were measured colorimetrically by treating with 150 μl of 10% acetic acid and the absorbance measured at 560 nm using a spectrophotometer.

EZH2 = biological target: T1, EZH2 (Homo sapiens, UniProt Q15910); assay: high throughput screen, E-cadherin promoter luciferase reporter in EZH2 adenovirus infected cells; conditions: final compound concentration about 5 μM, 24 hours
T1 construct: expressed in transfected cells; host or cells: Primary breast cancer cells infected with EZH2 adenovirus
Method: A high throughput screening protocol was used to identify small molecule inhibitors of EZH2. Primary breast cancer cells were transfected with the E-cadherin promoter luciferase reporter gene and infected with the EZH2 adenovirus to suppress luciferase expression 48 hours prior to compound addition. Eighteen hours prior to compound addition, cells were trypsinized and distributed into 384-well plates in 60 μl of medium using the Multidrop equipment. At time zero, compounds were transferred from 1.5 mM DMSO stocks to the cell plates in a final compound concentration of about 5 μM. […] After 24 hours, the expressed luciferase activity was measured by adding 50 μl of the medium and 10 μl of Steady-Glo luciferase reagent (Promega). Sample plates were read in the Pherastar plate reader (BMG Labtech). Each plate in the screen contains 320 compounds to be tested plus 64 control wells placed in the outer two columns on each side of the plate (>50,000 compounds are screened). […]
A high throughput screening protocol was used to identify small molecule inhibitors of EZH2. […] After 24 hours, the expressed luciferase activity was measured by adding 50 μl of the medium and 10 ul of Steady-Glo luciferase reagent (Promega). Sample plates were read in the Pherastar plate reader (BMG Labtech). […]

[2] = test system: EZH2 mediated E cadherin repression; assay: EZH2 mediated E cadherin repression, SYBR green RT-PCR and dose response
Method: A, Chemical structure of the flavonoid isoliquiritigenin. B, Quantitative SYBR green RT-PCR of EZH2 and E cadherin transcripts in cell lines over expressing EZH2 and control adenoviruses. RT-PCR on each sample was performed in duplicate, and a ratio was calculated relative to the housekeeping genes GAPDH. Transcripts were also measured in cells that were treated with isoliquiritigenin or other small molecules.
as §1

T1 sequence (Q15910 whole entry): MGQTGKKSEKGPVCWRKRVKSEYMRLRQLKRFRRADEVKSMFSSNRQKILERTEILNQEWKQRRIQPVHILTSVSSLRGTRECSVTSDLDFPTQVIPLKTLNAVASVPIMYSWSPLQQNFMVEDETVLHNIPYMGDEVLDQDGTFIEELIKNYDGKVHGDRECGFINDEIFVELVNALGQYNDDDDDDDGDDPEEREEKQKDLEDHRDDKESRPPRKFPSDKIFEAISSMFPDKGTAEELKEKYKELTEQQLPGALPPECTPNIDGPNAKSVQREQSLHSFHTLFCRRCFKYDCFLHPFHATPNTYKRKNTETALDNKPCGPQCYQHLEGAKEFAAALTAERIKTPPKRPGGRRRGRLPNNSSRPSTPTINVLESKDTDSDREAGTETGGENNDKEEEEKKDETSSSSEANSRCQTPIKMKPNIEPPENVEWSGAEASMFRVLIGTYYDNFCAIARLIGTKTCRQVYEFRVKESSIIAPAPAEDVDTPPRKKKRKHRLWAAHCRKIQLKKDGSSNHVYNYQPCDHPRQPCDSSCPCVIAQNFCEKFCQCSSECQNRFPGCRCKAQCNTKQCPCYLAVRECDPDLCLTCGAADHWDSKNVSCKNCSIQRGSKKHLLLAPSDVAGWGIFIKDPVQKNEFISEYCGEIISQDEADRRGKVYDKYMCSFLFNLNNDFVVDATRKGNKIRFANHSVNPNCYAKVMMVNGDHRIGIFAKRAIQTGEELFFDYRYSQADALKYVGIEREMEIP
T1 sequence (O75530 whole entry partner): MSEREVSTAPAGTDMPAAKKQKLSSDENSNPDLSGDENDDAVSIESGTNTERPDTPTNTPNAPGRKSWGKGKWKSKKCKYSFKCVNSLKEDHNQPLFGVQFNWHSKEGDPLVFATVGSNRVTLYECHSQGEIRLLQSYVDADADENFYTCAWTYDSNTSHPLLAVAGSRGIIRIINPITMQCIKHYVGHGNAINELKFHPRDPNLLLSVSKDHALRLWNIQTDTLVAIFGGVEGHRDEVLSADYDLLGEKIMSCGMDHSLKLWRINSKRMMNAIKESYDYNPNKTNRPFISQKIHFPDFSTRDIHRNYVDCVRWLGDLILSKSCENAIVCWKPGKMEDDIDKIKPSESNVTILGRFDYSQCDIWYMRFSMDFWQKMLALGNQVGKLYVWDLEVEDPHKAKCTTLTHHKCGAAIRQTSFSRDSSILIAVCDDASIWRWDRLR
T1 sequence (Q15022 whole entry partner): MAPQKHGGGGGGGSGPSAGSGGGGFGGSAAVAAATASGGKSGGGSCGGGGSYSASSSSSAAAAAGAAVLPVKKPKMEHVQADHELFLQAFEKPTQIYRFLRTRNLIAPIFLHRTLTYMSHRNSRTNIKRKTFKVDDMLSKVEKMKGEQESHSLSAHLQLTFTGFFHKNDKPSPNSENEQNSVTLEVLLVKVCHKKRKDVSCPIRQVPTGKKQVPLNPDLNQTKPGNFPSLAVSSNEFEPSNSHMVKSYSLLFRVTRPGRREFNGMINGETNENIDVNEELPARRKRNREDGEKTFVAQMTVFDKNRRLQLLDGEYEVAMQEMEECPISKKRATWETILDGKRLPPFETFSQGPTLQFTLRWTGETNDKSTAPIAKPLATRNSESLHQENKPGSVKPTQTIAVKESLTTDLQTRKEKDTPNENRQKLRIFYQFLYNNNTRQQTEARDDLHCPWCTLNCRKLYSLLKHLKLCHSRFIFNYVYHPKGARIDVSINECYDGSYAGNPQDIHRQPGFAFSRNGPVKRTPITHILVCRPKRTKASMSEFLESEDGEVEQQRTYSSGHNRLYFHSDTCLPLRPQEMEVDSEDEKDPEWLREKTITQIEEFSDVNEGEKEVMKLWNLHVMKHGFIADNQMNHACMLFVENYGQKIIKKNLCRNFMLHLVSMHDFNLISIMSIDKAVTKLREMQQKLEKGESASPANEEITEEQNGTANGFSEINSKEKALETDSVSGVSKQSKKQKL

Row | SMILES | invasion mediated by EZH2 overexpression [1] | EZH2 inhibitory activity in high throughput screen (EZH2) | inhibition of EZH2 mediated E cadherin repression ([2]; cells over expressing EZH2, FIG. 5B) | concentration that optimally inhibits EZH2 mediated E cadherin repression ([2]; dose response, FIG. 6A) [µM]
1 | O=C(CCc1ccc(O)cc1)c1c(O)cc(O)cc1O [control small molecule, phloretin, reference compound] | did not inhibit the invasion |  |  | 
2 | O=C(/C=C/c1ccc(O)cc1)c1ccc(O)cc1O [isoliquiritigenin] | inhibited this invasion | potent small molecule inhibitor of EZH2 activity | significantly inhibit | 16

Source: patent publication US20110251216A1, “COMPOSITIONS AND METHODS FOR INHIBITING EZH2” (The Regents of The University of Michigan, priority 2010, published 2011)
